Key:
Type in all cases: cell-based
[1] = Erk signaling (pErk, total Erk) by immunoblot in SW1573 cells; details: SW1573, 2.5 μM, all time points
Experimental: (§1) Signaling kinetics were monitored during a 24 hour time course in MIA PaCa2, NCI-H23, and SW1573 cells treated with 2.5 μM LC-2. Modulation of Erk signaling by both MRTX and LC-2 occurs within 6 hours in MIA PaCa-2 and NCI-H23 cells (FIGS. 10A, 10B, and 11). pErk was suppressed by both compounds at 6 and 24 hours in each cell lines. […] Total Erk was increased in LC-2 treated cells compared to DMSO at all time points indicating the initiation of a positive feedback loop upon KRAS^G12C degradation and pErk inhibition.
(§2) NCI-H2030 (CRL-5914), MIA PaCa-2 (CRL-1420), NCI-H23 (CRL-5800), NCI-H358 (CRL-5807), and HCT-116 (CCL-247) cells were obtained from ATCC, expanded immediately, and frozen down. Vials were thawed and used within 20 passages. SW1573 cells were a gift from Arvinas and were handled in the same manner. NCI-H2030, NCI-H23, and NCI-H358 were cultured in RPMI (ATCC30-2001) supplemented with 10% FBS (Biological Industries; cat. no. S1480) and 1% Penicillin-Streptomycin (ThermoFisher; cat. no. 15140122). HCT-116 cells were maintained in high glucose DMEM (ThermoFisher; cat. no. 11965084) supplemented as above. MIA PaCa-2 cells were cultured in high glucose DMEM supplemented with 10% FBS, 2.5% horse serum (ThermoFisher; cat. no. 26050-088; lot 2109875), and 1% Penicillin-Streptomycin. SW1573 cells were maintained in DMEM/F12 Nutrient Mix with GlutaMAX supplement (ThermoFisher; cat. no. 10565018) with 10% FBS and 1% Penicillin-Streptomycin added. DPBS (ThermoFisher; cat. no. 14190250) was used to wash cells and 0.25% Trypsin-EDTA (ThermoFisher; cat. no. […]) was used to detach cells for passaging. […] The VHL ligand was generously provided by Arvinas. […]
(§3) Cell lysates were clarified at 21000×g for 15 mins at 4° C. Protein levels were quantified using a 50:1 mixture of bicinchoninic acid solution (Millipore Sigma; cat. no. B9643) and 4% (w/v) copper(II) sulfate solution (Millipore Sigma; cat. no. C2284) incubated at 37° C. for 30 mins. Absorbance values at 560 nm were read on an EnVision 2101 Multilabel Reader (PerkinElmer). […]

[2] = system: pErk; assay: as above; details: SW1573, 2.5 μM
Experimental: as §1, §2, §3

[3] = target: KRAS^G12C (Homo sapiens, UniProt P01116, G12C); assay: KRAS^G12C degradation in homozygous MIA PaCa-2 cells; design: endogenous in cells; host or cells: MIA PaCa-2; details: homozygous MIA PaCa-2 cells (FIG. 4B)
KRAS^G12C, sequence (P01116 1-188 isoform P01116-2 G12C): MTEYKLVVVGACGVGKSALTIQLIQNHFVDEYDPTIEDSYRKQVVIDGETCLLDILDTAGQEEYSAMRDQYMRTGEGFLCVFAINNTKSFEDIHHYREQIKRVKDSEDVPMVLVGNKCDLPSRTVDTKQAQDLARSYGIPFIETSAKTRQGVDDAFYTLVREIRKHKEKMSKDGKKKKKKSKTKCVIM

[4] = system: pErk; assay: Erk signaling (pErk) during a 24 hour treatment in SW1573 cells; details: 24 hour treatment time course (FIG. 11)

With C=C(F)C(=O)N1CCN(c2nc(OC[C@@H]3CCCN3CCCOCCC(=O)N[C@H](C(=O)N3C[C@H](O)C[C@H]3C(=O)NCc3ccc(-c4scnc4C)cc3)C(C)(C)C)nc3c2CCN(c2cccc4cccc(Cl)c24)C3)C[C@@H]1CC#N [LC-2, (2S,4R)-1-((S)-2-(3-(3-((S)-2-(((7-(8-chloronaphthalen-1-yl)-4-((S)-3-(cyanomethyl)-4-(2-fluoroacryloyl)piperazin-1-yl)-5,6,7,8-tetrahydropyrido[3,4-d]pyrimidin-2-yl)oxy)methyl)pyrrolidin-1-yl)propoxy)propanamido)-3,3-dimethylbutanoyl)-4-hydroxy-N-(4-(4-methylthiazol-5-yl)benzyl)pyrrolidine-2-carboxamide] the “total Erk versus DMSO” value [1] was “increased”, the “phosphorylated Erk over time” value ([2]; 24 hour time course) was “inhibited by 2.5 μM LC-2 between 1 and 4 hours, however pErk levels rebounded between 8 and 24 hours” and the “pErk levels versus DMSO” value ([2]; 24 hours) was “significantly lower”. The “induction of KRAS^G12C degradation” value [3] was “induces KRAS^G12C” and the “pErk (Erk signaling)” value [4] was “pErk is decreased throughout the time course”.

Source: patent publication US20220370416A1, “COMPOUNDS AND METHODS FOR TARGETED DEGRADATION OF KRAS” (Arvinas Operations, Inc., priority 2020, published 2022)
